# Experimental data taken from ChEMBL document CHEMBL3045056, “Structures and Biological Activities of Phytotoxins Produced by the Plant Pathogenic Fungus Bipolaris cynodontis cynA” (J Pestic Sci, 1998).
# Active and inactive are the calls of the source. The rule behind the calls is not given here.
# Tested on: Lolium multiflorum
# Assay: Phytotoxicity against Lolium multiflorum (Italian ryegrass) seedlings assessed as inhibition of root growth at 100 ppm at 26 degC for 72 hr
# Assay type: functional, organism-based
# Conditions: not given
row,Compound,inhibition
1,CC[C@H](C)[C@@H](O)[C@@H](C)C1=C(CC(C)=O)C(=O)C2=C(O[C@]3(C)CC[C@H]4O[C@@H](C(C)(C)O)CC[C@]4(C)[C@H]3[C@@H]2O)[C@]1(O)OC [COCHLIOQUINOL III],Active
2,CC[C@H](C)C(=O)[C@@H](C)C1=CC(=O)C2=C(O[C@]3(C)CC[C@H]4O[C@@H](C(C)(C)O)CC[C@]4(C)[C@H]3C2)C1=O [COCHLIOQUINONE B],Active
3,CC[C@H](C)[C@@H](O)[C@@H](C)C1=CC(=O)C2=C(O[C@]3(C)CC[C@H]4O[C@@H](C(C)(C)O)CC[C@]4(C)[C@H]3[C@@H]2O)[C@]1(O)CC(C)=O [COCHLIOQUINOL II],Active
4,C/C=C(\C)C(=O)[C@@H](C)C1=CC(=O)C2=C(O[C@]3(C)CC[C@H]4O[C@@H](C(C)(C)O)CC[C@]4(C)[C@H]3C2)C1=O [COCHLIOQUINONE D],Active
5,CC[C@H](C)[C@@H](OC(C)=O)[C@@H](C)C1=CC(=O)C2=C(O[C@]3(C)CC[C@H]4O[C@@H](C(C)(C)O)CC[C@]4(C)[C@H]3[C@@H]2O)C1=O [COCHLIOQUINONE A],Active
6,C/C=C(\C)[C@@H](OC(C)=O)[C@@H](C)C1=CC(=O)C2=C(O[C@]3(C)CC[C@H]4O[C@@H](C(C)(C)O)CC[C@]4(C)[C@H]3[C@@H]2O)C1=O [STEMPHONE],Active
7,CC[C@H](C)C(=O)[C@@H](C)C1=CC(=O)C2=C(O[C@]3(C)CC[C@H]4O[C@@H](C(C)(C)O)CC[C@]4(C)[C@H]3[C@@H]2O)C1=O [COCHLIOQUINONE C],Active
8,CC[C@H](C)[C@@H](OC(C)=O)[C@@H](C)c1cc(O)c2c(c1O)O[C@]1(C)CC[C@H]3O[C@@H](C(C)(C)O)CC[C@]3(C)[C@H]1C2=O [ISOCOCHLIOQUINONE A],Active
9,CC[C@H](C)C(=O)[C@@H](C)C1=CC(=O)C2=C(O[C@]3(C)CC[C@H]4O[C@@H](C(C)(C)O)CC[C@]4(C)[C@H]3[C@@H]2O)[C@]1(O)CC(C)=O [COCHLIOQUINOL],Active
10,CC[C@H](C)C(=O)[C@@H](C)c1cc(O)c2c(c1O)O[C@]1(C)CC[C@H]3O[C@@H](C(C)(C)O)CC[C@]3(C)[C@H]1C2=O [ISOCOCHLIOQUINONE C],Active
11,CC[C@H](C)C(=O)[C@@H](C)C1=CC(=O)C2=C(O[C@]3(C)CC[C@H]4O[C@@H](C(C)(C)O)C[C@H](O)[C@]4(C)[C@H]3C2)C1=O [COCHLIOQUINONE E],Active

# Tested on: not listed separately
# Assay: Octanol-water partition coefficient, log K of the compound by reversed-phase HPLC
# Assay type: physicochemical
# Conditions: read-out: log K
row,Compound,logP
1,CC[C@H](C)[C@@H](O)[C@@H](C)C1=C(CC(C)=O)C(=O)C2=C(O[C@]3(C)CC[C@H]4O[C@@H](C(C)(C)O)CC[C@]4(C)[C@H]3[C@@H]2O)[C@]1(O)OC [COCHLIOQUINOL III],0.31
2,CC[C@H](C)C(=O)[C@@H](C)C1=CC(=O)C2=C(O[C@]3(C)CC[C@H]4O[C@@H](C(C)(C)O)CC[C@]4(C)[C@H]3C2)C1=O [COCHLIOQUINONE B],0.437
3,CC[C@H](C)[C@@H](O)[C@@H](C)C1=CC(=O)C2=C(O[C@]3(C)CC[C@H]4O[C@@H](C(C)(C)O)CC[C@]4(C)[C@H]3[C@@H]2O)[C@]1(O)CC(C)=O [COCHLIOQUINOL II],-0.05
4,CC[C@H](C)[C@@H](OC(C)=O)[C@@H](C)C1=CC(=O)C2=C(O[C@]3(C)CC[C@H]4O[C@@H](C(C)(C)O)CC[C@]4(C)[C@H]3[C@@H]2O)C1=O [COCHLIOQUINONE A],0.337
5,C/C=C(\C)[C@@H](OC(C)=O)[C@@H](C)C1=CC(=O)C2=C(O[C@]3(C)CC[C@H]4O[C@@H](C(C)(C)O)CC[C@]4(C)[C@H]3[C@@H]2O)C1=O [STEMPHONE],0.224
6,CC[C@H](C)C(=O)[C@@H](C)C1=CC(=O)C2=C(O[C@]3(C)CC[C@H]4O[C@@H](C(C)(C)O)CC[C@]4(C)[C@H]3[C@@H]2O)C1=O [COCHLIOQUINONE C],0.091
7,CC[C@H](C)C(=O)[C@@H](C)C1=CC(=O)C2=C(O[C@]3(C)CC[C@H]4O[C@@H](C(C)(C)O)CC[C@]4(C)[C@H]3[C@@H]2O)[C@]1(O)CC(C)=O [COCHLIOQUINOL],-0.238

# The next lines start with the values.
row,logP,Compound
1,0.287,C/C=C(\C)C(=O)[C@@H](C)C1=CC(=O)C2=C(O[C@]3(C)CC[C@H]4O[C@@H](C(C)(C)O)CC[C@]4(C)[C@H]3C2)C1=O [COCHLIOQUINONE D]
2,0.699,CC[C@H](C)[C@@H](OC(C)=O)[C@@H](C)c1cc(O)c2c(c1O)O[C@]1(C)CC[C@H]3O[C@@H](C(C)(C)O)CC[C@]3(C)[C@H]1C2=O [ISOCOCHLIOQUINONE A]
3,0.482,CC[C@H](C)C(=O)[C@@H](C)c1cc(O)c2c(c1O)O[C@]1(C)CC[C@H]3O[C@@H](C(C)(C)O)CC[C@]3(C)[C@H]1C2=O [ISOCOCHLIOQUINONE C]
4,0.013,CC[C@H](C)C(=O)[C@@H](C)C1=CC(=O)C2=C(O[C@]3(C)CC[C@H]4O[C@@H](C(C)(C)O)C[C@H](O)[C@]4(C)[C@H]3C2)C1=O [COCHLIOQUINONE E]

# Tested on: Oryza sativa
# Assay: Phytotoxicity in Oryza sativa (rice) seedlings assessed as assessed as inhibition of root growth at 100 ppm at 26 degC for 72 hr
# Assay type: functional, organism-based
# Conditions: not given
row,Compound,inhibition
1,CC[C@H](C)[C@@H](O)[C@@H](C)C1=C(CC(C)=O)C(=O)C2=C(O[C@]3(C)CC[C@H]4O[C@@H](C(C)(C)O)CC[C@]4(C)[C@H]3[C@@H]2O)[C@]1(O)OC [COCHLIOQUINOL III],Active
2,CC[C@H](C)C(=O)[C@@H](C)C1=CC(=O)C2=C(O[C@]3(C)CC[C@H]4O[C@@H](C(C)(C)O)CC[C@]4(C)[C@H]3C2)C1=O [COCHLIOQUINONE B],Active
3,CC[C@H](C)[C@@H](O)[C@@H](C)C1=CC(=O)C2=C(O[C@]3(C)CC[C@H]4O[C@@H](C(C)(C)O)CC[C@]4(C)[C@H]3[C@@H]2O)[C@]1(O)CC(C)=O [COCHLIOQUINOL II],Active
4,C/C=C(\C)C(=O)[C@@H](C)C1=CC(=O)C2=C(O[C@]3(C)CC[C@H]4O[C@@H](C(C)(C)O)CC[C@]4(C)[C@H]3C2)C1=O [COCHLIOQUINONE D],Active
5,CC[C@H](C)[C@@H](OC(C)=O)[C@@H](C)C1=CC(=O)C2=C(O[C@]3(C)CC[C@H]4O[C@@H](C(C)(C)O)CC[C@]4(C)[C@H]3[C@@H]2O)C1=O [COCHLIOQUINONE A],Active
6,C/C=C(\C)[C@@H](OC(C)=O)[C@@H](C)C1=CC(=O)C2=C(O[C@]3(C)CC[C@H]4O[C@@H](C(C)(C)O)CC[C@]4(C)[C@H]3[C@@H]2O)C1=O [STEMPHONE],Active
7,CC[C@H](C)C(=O)[C@@H](C)C1=CC(=O)C2=C(O[C@]3(C)CC[C@H]4O[C@@H](C(C)(C)O)CC[C@]4(C)[C@H]3[C@@H]2O)C1=O [COCHLIOQUINONE C],Active
8,CC[C@H](C)[C@@H](OC(C)=O)[C@@H](C)c1cc(O)c2c(c1O)O[C@]1(C)CC[C@H]3O[C@@H](C(C)(C)O)CC[C@]3(C)[C@H]1C2=O [ISOCOCHLIOQUINONE A],Active
9,CC[C@H](C)C(=O)[C@@H](C)C1=CC(=O)C2=C(O[C@]3(C)CC[C@H]4O[C@@H](C(C)(C)O)CC[C@]4(C)[C@H]3[C@@H]2O)[C@]1(O)CC(C)=O [COCHLIOQUINOL],Active
10,CC[C@H](C)C(=O)[C@@H](C)c1cc(O)c2c(c1O)O[C@]1(C)CC[C@H]3O[C@@H](C(C)(C)O)CC[C@]3(C)[C@H]1C2=O [ISOCOCHLIOQUINONE C],Active
11,CC[C@H](C)C(=O)[C@@H](C)C1=CC(=O)C2=C(O[C@]3(C)CC[C@H]4O[C@@H](C(C)(C)O)C[C@H](O)[C@]4(C)[C@H]3C2)C1=O [COCHLIOQUINONE E],Active
